Several values for one entry are separate records, joined by “and”; a condition that tells them apart may be missing. Equal values may be shown once.
Tested on: K86415-001-R-J1-PDC complex spheroids, viability
Test: Anticancer human tumor K86415-001-R-J1-PDC patient-derived lung adenocarcinoma cell line growth inhibition [RAS]
Settings: for viability, T/C: stronger effect = lower value
Procedure, shortened: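 Tumour cells grown as complex spheroids with HUVEC endothelial cells and mesenchymal stem cells, treated with RAS pathway inhibitor combinations. Each agent spans half-log steps from near clinical Cmax, or 10 microM where Cmax is unknown.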
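Also: spheroids exposed to agents for seven days before readout.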

CC(Nc1ccc2c(c1)OCCn1cc(N3C(=O)OCC3C(F)F)nc1-2)C(N)=O (stereo not given) + CCn1c(-c2cc(N3CCN(C)CC3)cnc2C(C)OC)c2c3cc(ccc31)-c1csc(n1)CC(NC(=O)C1CC1C)C(=O)N1CCCC(N1)C(=O)OCC(C)(C)C2 was tested, and the IC50 (curve of first compound, second compound 0.000949 µM) was < 31.6 nM, the IC50 (curve of first compound, second compound 0.003 µM) was < 31.6 nM and the IC50 (curve of first compound, second compound 0.00949 µM) was < 31.6 nM. For the same molecule, the IC50 (curve of first compound, second compound 0.03 µM) was < 31.6 nM, the IC50 (curve of first compound, second compound 0.0949 µM) was < 31.6 nM and the IC50 (curve of first compound, second compound 0.3 µM) was < 31.6 nM. For the same molecule, the viability, T/C (second compound 0.000949 µM, first compound 0.0316 µM) was 44.1%, the viability, T/C (second compound 0.000949 µM, first compound 0.1 µM) was 28.2% and the viability, T/C (second compound 0.000949 µM, first compound 0.316 µM) was 22.2%. It also gave a viability, T/C (second compound 0.000949 µM, first compound 1 µM) of 20.6%, a viability, T/C (second compound 0.000949 µM, first compound 3.16 µM) of 16.6% and a viability, T/C (second compound 0.000949 µM, first compound 10 µM) of 6.57%. It also gave a viability, T/C (second compound 0.003 µM, first compound 0.0316 µM) of 18.8%, a viability, T/C (second compound 0.003 µM, first compound 0.1 µM) of 12.9% and a viability, T/C (second compound 0.003 µM, first compound 0.316 µM) of 12.1%. The viability, T/C (second compound 0.003 µM, first compound 1 µM) was 8.44%, the viability, T/C (second compound 0.003 µM, first compound 3.16 µM) was 5.02% and the viability, T/C (second compound 0.003 µM, first compound 10 µM) was 1.84%. The viability, T/C (second compound 0.00949 µM, first compound 0.0316 µM) was 11.8%, the viability, T/C (second compound 0.00949 µM, first compound 0.1 µM) was 4.96% and the viability, T/C (second compound 0.00949 µM, first compound 0.316 µM) was 3.08%. It also gave a viability, T/C (second compound 0.00949 µM, first compound 1 µM) of 2.36%, a viability, T/C (second compound 0.00949 µM, first compound 3.16 µM) of 1.25% and a viability, T/C (second compound 0.00949 µM, first compound 10 µM) of 0.72%. It also gave a viability, T/C (second compound 0.03 µM, first compound 0.0316 µM) of 4.01%, a viability, T/C (second compound 0.03 µM, first compound 0.1 µM) of 1.42% and a viability, T/C (second compound 0.03 µM, first compound 0.316 µM) of 1.24%. For the same molecule, the viability, T/C (second compound 0.03 µM, first compound 1 µM) was 1.2%, the viability, T/C (second compound 0.03 µM, first compound 3.16 µM) was 0.54% and the viability, T/C (second compound 0.03 µM, first compound 10 µM) was 0.63%. The viability, T/C (second compound 0.0949 µM, first compound 0.0316 µM) was 1.94%, the viability, T/C (second compound 0.0949 µM, first compound 0.1 µM) was 1.08% and the viability, T/C (second compound 0.0949 µM, first compound 0.316 µM) was 0.93%. It also gave a viability, T/C (second compound 0.0949 µM, first compound 1 µM) of 0.62%, a viability, T/C (second compound 0.0949 µM, first compound 3.16 µM) of 0.8% and a viability, T/C (second compound 0.0949 µM, first compound 10 µM) of 0.59%. For the same molecule, the viability, T/C (second compound 0.3 µM, first compound 0.0316 µM) was 2.35%, the viability, T/C (second compound 0.3 µM, first compound 0.1 µM) was 0.93% and the viability, T/C (second compound 0.3 µM, first compound 0.316 µM) was 0.73%. The viability, T/C (second compound 0.3 µM, first compound 1 µM) was 0.47%, the viability, T/C (second compound 0.3 µM, first compound 3.16 µM) was 0.85% and the viability, T/C (second compound 0.3 µM, first compound 10 µM) was 0.49%.
For CC1(O)CCCC1n1c(=O)c(C(F)F)cc2cnc(NC3CCN(S(C)(=O)=O)CC3)nc21 (stereo not given), the viability, T/C (compound 0.0316 µM) was 83.8% and 84.3% and 80.5% (2×), the viability, T/C (compound 0.1 µM) was 87.1% [middle of 4 runs] and the viability, T/C (compound 0.316 µM) was 65.7% [middle of 4 runs]. For the same molecule, the viability, T/C (compound 1 µM) was 72% (2×) and 75% and 80.8%, the viability, T/C (compound 10 µM) was 10.4% [middle of 4 runs] and the IC50 (curve of compound) was 5.04 µM [middle of 4 runs].
CC(Nc1ccc2c(c1)OCCn1cc(N3C(=O)OCC3C(F)F)nc1-2)C(N)=O (stereo not given) + C#Cc1c(F)ccc2cc(O)cc(-c3ncc4c(N5CC6CCC(C5)N6)nc(OCC56CCCN5CC(F)C6)nc4c3F)c12 was tested, and the IC50 (curve of first compound, second compound 0.0316 µM) was 1170 nM, the IC50 (curve of first compound, second compound 0.1 µM) was 1620 nM and the IC50 (curve of first compound, second compound 0.316 µM) was 1190 nM. For the same molecule, the IC50 (curve of first compound, second compound 1 µM) was 472 nM, the IC50 (curve of first compound, second compound 3.16 µM) was < 31.6 nM and the IC50 (curve of first compound, second compound 10 µM) was < 31.6 nM. It also gave a viability, T/C (second compound 0.0316 µM, first compound 0.0316 µM) of 84.4%, a viability, T/C (second compound 0.0316 µM, first compound 0.1 µM) of 93.5% and a viability, T/C (second compound 0.0316 µM, first compound 0.316 µM) of 63.5%. The viability, T/C (second compound 0.0316 µM, first compound 1 µM) was 50.1%, the viability, T/C (second compound 0.0316 µM, first compound 3.16 µM) was 47.6% and the viability, T/C (second compound 0.0316 µM, first compound 10 µM) was 29.1%. The viability, T/C (second compound 0.1 µM, first compound 0.0316 µM) was 90.3%, the viability, T/C (second compound 0.1 µM, first compound 0.1 µM) was 86.2% and the viability, T/C (second compound 0.1 µM, first compound 0.316 µM) was 69.5%. For the same molecule, the viability, T/C (second compound 0.1 µM, first compound 1 µM) was 56%, the viability, T/C (second compound 0.1 µM, first compound 3.16 µM) was 42.5% and the viability, T/C (second compound 0.1 µM, first compound 10 µM) was 28.2%. For the same molecule, the viability, T/C (second compound 0.316 µM, first compound 0.0316 µM) was 84.9%, the viability, T/C (second compound 0.316 µM, first compound 0.1 µM) was 86.7% and the viability, T/C (second compound 0.316 µM, first compound 0.316 µM) was 65.3%. It also gave a viability, T/C (second compound 0.316 µM, first compound 1 µM) of 53.2%, a viability, T/C (second compound 0.316 µM, first compound 3.16 µM) of 38.5% and a viability, T/C (second compound 0.316 µM, first compound 10 µM) of 28.4%. The viability, T/C (second compound 1 µM, first compound 0.0316 µM) was 71.6%, the viability, T/C (second compound 1 µM, first compound 0.1 µM) was 62% and the viability, T/C (second compound 1 µM, first compound 0.316 µM) was 50.9%. For the same molecule, the viability, T/C (second compound 1 µM, first compound 1 µM) was 46.1%, the viability, T/C (second compound 1 µM, first compound 3.16 µM) was 34.3% and the viability, T/C (second compound 1 µM, first compound 10 µM) was 23.2%. For the same molecule, the viability, T/C (second compound 3.16 µM, first compound 0.0316 µM) was 33.2%, the viability, T/C (second compound 3.16 µM, first compound 0.1 µM) was 26.4% and the viability, T/C (second compound 3.16 µM, first compound 0.316 µM) was 26.5%. It also gave a viability, T/C (second compound 3.16 µM, first compound 1 µM) of 26.9%, a viability, T/C (second compound 3.16 µM, first compound 3.16 µM) of 22.4% and a viability, T/C (second compound 3.16 µM, first compound 10 µM) of 12.8%. The viability, T/C (second compound 10 µM, first compound 0.0316 µM) was 16.3%, the viability, T/C (second compound 10 µM, first compound 0.1 µM) was 15.2% and the viability, T/C (second compound 10 µM, first compound 0.316 µM) was 11.7%. The viability, T/C (second compound 10 µM, first compound 1 µM) was 6.87%, the viability, T/C (second compound 10 µM, first compound 3.16 µM) was 3.76% and the viability, T/C (second compound 10 µM, first compound 10 µM) was 1.56%.

From PubChem BioAssay AID2060893 (Molecular Pharmacology Branch, DTP, NCI, 2025)
